Test system: blood collected from a volunteer
Experiment: Measurement of whole blood clotting time (Sonoclot, ACT ONSET)
Design: species or system human
Experimental: The blood collected from a volunteer and citric acid were mixed at a volume ratio of 9/1 to prepare blood supplemented with citric acid.
In a cuvette (NON-ACTIVATED CLOTTING TEST KIT), 18 μL of physiological saline solution was placed, and 14.8 μL of calcicol was added thereto, followed by further adding 342 μL of blood supplemented with citric acid. Thereafter, the measurement using Sonoclot Blood Coagulation/Platelet Function Analyzer (IMI) was carried out to define the obtained ACT ONSET value as whole blood clotting time. The whole blood clotting time of the blood collected by volunteer was 545 seconds.

Compound: CC1CNc2c(cccc2S(=O)(=O)N[C@@H](CCCNC(=N)N)C(=O)N2CC[C@@H](C)C[C@@H]2C(=O)O)C1 (mixture of isomers) [argatroban, (2R,4R)-4-methyl-1-((2S)-2-{[(3RS)-3-methyl-1,2,3,4-tetrahydroquinolin-8-yl]sulfonyl}amino-5-guanidinopentanoyl)piperidin-2-carboxylic acid]
- Whole blood clotting time (2 μM argatroban solution in place of physiological saline solution): 531 s
- Whole blood clotting time (10 μM argatroban solution in place of physiological saline solution): 746 s
- Whole blood clotting time (20 μM argatroban solution in place of physiological saline solution): 849 s

— patent US20120271010A1, “HYDROPHILIC POLYMER COMPOUND HAVING ANTICOAGULATION EFFECT” (TORAY INDUSTRIES, INC., priority 2009, published 2012)
